Results published in PubChem BioAssay AID1259407 (Chemical Carcinogenesis Research Information System (CCRIS), 2018).
Active and inactive are the calls of the source. The rule behind the calls is not given here.

System: CCRIS mutagenicity, Ames/micronucleus/aberration tests
Experiment: CCRIS mutagenicity studies
Settings: Test System: AMES SALMONELLA TYPHIMURIUM

| SMILES | mutagenic call (Strain/Indicator: TA98, Metabolic Activation: NONE, Method: PREINCUBATION) | mutagenic call (Strain/Indicator: TA98, Metabolic Activation: RAT, LIVER, S-9, PCB, Method: PREINCUBATION) | mutagenic call (Strain/Indicator: TA100, Metabolic Activation: NONE, Method: PREINCUBATION) | mutagenic call (Strain/Indicator: TA100, Metabolic Activation: RAT, LIVER, S-9, PCB, Method: PREINCUBATION) | mutagenic call (Strain/Indicator: TA98(1,8-DNP6), Metabolic Activation: NONE, Method: STANDARD PLATE) | mutagenic call (Strain/Indicator: TA98(1,8-DNP6), Metabolic Activation: S-9, Method: STANDARD PLATE) | mutagenic call (Strain/Indicator: TA98, Metabolic Activation: NONE, Method: STANDARD PLATE) | mutagenic call (Strain/Indicator: TA98, Metabolic Activation: S-9, Method: STANDARD PLATE) | mutagenic call (Strain/Indicator: TA100, Metabolic Activation: NONE, Method: STANDARD PLATE) | mutagenic call (Strain/Indicator: TA100, Metabolic Activation: S-9, Method: STANDARD PLATE) |
| --- | --- | --- | --- | --- | --- | --- | --- | --- | --- | --- |
| COc1nncc2cccnc12 | inactive; negative | inactive; negative | inactive; negative | inactive; negative |  |  |  |  |  |  |
| Nc1ccc(/C=C/c2cccc(N)c2)cc1 |  |  |  |  | inactive; negative | active; positive | active; positive | active; positive | inactive; negative | active; positive |
